Legend:
[1] = mouse, in vivo
Method: Athymic mice engrafted with tumor cells were used to determine antitumor activity. […] When tumor size reached 5–6 mm in diameter (n = 4–5 per group), mice were randomly assigned into several groups and vehicle-treated or treated with drug(s). […] Animals were monitored for food and water consumption every day, and their body weights and tumor volumes were measured twice per week. Tumor volumes were measured with a digital caliper and were determined by the following formula: ½ length × width^2. Blood samples were collected via cardiac puncture and processed for ALT and AST measurements. The animals were then immediately euthanized by carbon dioxide. Tumors and vital organs (spleen, kidney, liver and lung) were harvested and fixed in 10% buffered formalin at 4 °C overnight before being processed for a paraffin embedding. The paraffin-embedded blocks were then sectioned to 4–5 µm thick. Each section was stained with haematoxylin and eosin (H&E).

KB-C-2 [2] = assay: SRB cell viability, MDR1-overexpressing cells; assay type: cell-based, human; settings: for Resistance (fold): KB-C-2 vs KB-C-1, Table S1
KB-C-1 = assay: SRB cell viability, parental cells; assay type: cell-based; settings: Homo sapiens, KBC-1; KB-C-1; Table S1
Method: (§1) human epidermoid carcinoma cell line and KB-C2, an isogenic MDR1- overexpressing drug-resistant cell line, were kindl y provided b y Dr. Amit K Tiwari, the Universit y of Toledo, OH. […]
(§2) Cell line authentication was carried out by Genetica DNA
(§3) Cell viability, com binational i ndex and cell synchronization
(§4) Cell viability and proliferation were ex amined using a s ulforhodamine B (SRB) assa y as […]
(§5) IC 50 values were calculat ed from si gmoidal dose-response cu rves gen erat ed b y at least two indepen dent ex periments , with each quadruplicate samples, using GraphPad Prism v.5.04 software (GraphPad Software, Inc, La J olla, CA). […]
(§6) (sham) or presence of compound(s). […]

H69AR = assay: SRB cell viability, multidrug-resistant cells; assay type: cell-based; settings: Table S1; for Resistance (fold): H69AR vs SW-1271; for IC50: Homo sapiens, H69AR
Method: as §2, §3, §4, §5, §6

MDA-MB-231TaxR = assay: SRB cell viability, paclitaxel-resistant cells; assay type: cell-based; settings: MDA-MB-231TaxR vs MDA-MB-231
Method: (§7) Dr. Susan Cole (Queen’s Universit y, Kingston, Ontario, Canada). The pacl itaxel-resistant MDA-MB-231TaxR cell line was generated in house b y culturing MDA-MB-231 cells (purchased from ATCC and authen ticated ) in the gradual l y incr easi ng con centr ations of pacl itax el until the concentration reached to 100 nM. Cell line authentication was carried out by Genetica DNA Laboratories (Burlington, NC) using a short tandem repeat (STR) profiling method (March 2015; […]
as §3
as §5, with “Cell viability and proliferation were ex amined using a s ulforhodamine B (SRB) assa y as described previousl y (Hu et al., 2008). IC” for “IC”
(§8) (Romero and Lee, 2008), and the cells were r eleas ed in to complete medium in the absence (sham) or presence of compound(s). […]

SW-1271 = assay: SRB cell viability; assay type: cell-based; settings: SW1271, Table S1
Method: as §2, §3, §4, §5, §6

KB-C-2 [3] = assay: SRB cell viability, MDR1-overexpressing cells; assay type: cell-based; settings: Homo sapiens, KB-C2; KB-C-2; Table S1
Method: as §1, §2, §3, §4, §5, §6

[4] = system: MDA-MB-231 triple-negative metastatic breast cancer cells; assay: Antitumor activity in engrafted athymic mice; assay type: in vivo, ATH490 athymic mice
Method: The animals were then immediately euthanized by carbon dioxide. […]
Supplementary Table S2. A typical treatment protocol of engrafted mice with CTR alone or in
combination with paclitaxel.
Treatment Dos a ge Frequ enc y Route Notes
Sham control Highest volume E v e r y 3-4 d a ys Intraperitoneal (I.P.) Vehicle onl y
Taxa 10 mg/kgb Once/week Intravenous ( I.V.)
CTR-17 (30) 30 mg/kg E v e r y 3-4 d a ys I. P .
CTR-20 (30) 30 mg/kg E v e r y 3-4 d a ys I. P .
Supplementary Table S 3: Antitumor activity of CTR -17 and CTR -20, alone or in combination
a Tax: paclitaxel. b mg per kg of bod y wei ght. c unit is mm 3. […]

MDA-MB-231 = assay: SRB cell viability and combinational index; assay type: cell-based; settings: Homo sapiens; MDA-MB-231 cells
Method: as §7, §3
as §5, with “Cell viability and proliferation were ex amined using a s ulforhodamine B (SRB) assa y as described previousl y (Hu et al., 2008). IC” for “IC”
737/ABT-199 w ere us ed at or below IC 50 . The combinational index (CI) w as calculat ed as previousl y described (Chou, 2006). […]
as §8

MRP1 [5] = molecular target: T1, MRP1 (Homo sapiens, UniProt P33527); assay: Calcein-AM retention assay, HEK293-MRP1 cells; assay type: cell-based; settings: 22 µmol/L, DMSO control 52%
T1 construct: expressed in transfected cells; host or cells: HEK293-MRP1 (gift of Dr. Susan Cole)
T1 sequence (P33527 whole entry): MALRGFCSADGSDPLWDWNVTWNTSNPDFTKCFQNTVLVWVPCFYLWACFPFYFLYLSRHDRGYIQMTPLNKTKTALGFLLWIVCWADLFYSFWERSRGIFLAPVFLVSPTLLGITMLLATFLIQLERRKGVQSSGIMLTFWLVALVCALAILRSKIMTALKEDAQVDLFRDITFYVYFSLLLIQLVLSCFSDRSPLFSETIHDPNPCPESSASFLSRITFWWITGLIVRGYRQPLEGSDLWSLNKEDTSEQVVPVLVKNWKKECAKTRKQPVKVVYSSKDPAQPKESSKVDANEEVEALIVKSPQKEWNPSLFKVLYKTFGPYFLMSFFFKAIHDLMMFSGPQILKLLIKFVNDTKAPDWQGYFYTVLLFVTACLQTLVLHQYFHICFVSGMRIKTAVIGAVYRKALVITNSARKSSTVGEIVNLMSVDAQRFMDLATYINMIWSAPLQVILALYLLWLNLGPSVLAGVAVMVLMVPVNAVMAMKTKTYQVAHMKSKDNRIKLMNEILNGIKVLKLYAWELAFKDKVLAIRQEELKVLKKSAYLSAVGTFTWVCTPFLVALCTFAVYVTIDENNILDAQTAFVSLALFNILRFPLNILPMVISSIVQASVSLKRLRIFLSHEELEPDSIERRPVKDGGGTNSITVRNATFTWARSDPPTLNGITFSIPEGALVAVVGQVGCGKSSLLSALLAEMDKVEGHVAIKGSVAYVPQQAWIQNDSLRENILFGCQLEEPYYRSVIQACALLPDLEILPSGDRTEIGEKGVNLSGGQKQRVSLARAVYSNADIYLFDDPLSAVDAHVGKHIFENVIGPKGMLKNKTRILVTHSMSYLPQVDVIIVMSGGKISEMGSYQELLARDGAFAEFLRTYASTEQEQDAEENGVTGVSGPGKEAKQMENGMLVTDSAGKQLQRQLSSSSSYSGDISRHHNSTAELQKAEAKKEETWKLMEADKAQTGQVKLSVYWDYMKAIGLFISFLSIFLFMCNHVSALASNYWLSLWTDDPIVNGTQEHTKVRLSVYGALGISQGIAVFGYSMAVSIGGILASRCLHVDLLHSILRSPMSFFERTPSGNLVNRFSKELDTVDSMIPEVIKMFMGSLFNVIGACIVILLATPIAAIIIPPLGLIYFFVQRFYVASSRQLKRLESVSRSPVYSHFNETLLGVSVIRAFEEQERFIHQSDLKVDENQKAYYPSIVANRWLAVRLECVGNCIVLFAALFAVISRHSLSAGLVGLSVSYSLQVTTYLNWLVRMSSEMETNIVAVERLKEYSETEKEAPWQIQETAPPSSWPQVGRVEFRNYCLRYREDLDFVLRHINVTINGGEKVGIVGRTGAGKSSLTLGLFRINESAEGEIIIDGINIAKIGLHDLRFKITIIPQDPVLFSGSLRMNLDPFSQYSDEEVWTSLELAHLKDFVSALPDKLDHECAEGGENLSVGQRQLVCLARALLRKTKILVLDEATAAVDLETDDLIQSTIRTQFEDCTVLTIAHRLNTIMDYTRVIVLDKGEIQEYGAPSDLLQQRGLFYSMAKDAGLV

HEK293-MRP1 = assay: SRB cell viability, MRP1-overexpressing cells; assay type: cell-based, human; settings: HEK293-MRP1 vs HEK293
Description: Parental HEK293 and M RP1- overexpressing HEK293- MRP1 isogenic cel ls were kind gifts of Dr. Susan Cole (Queen’s Universit y, Kingston, Ontario, Canada). […]
as §3, §4, §5, §6

MRP1 [6] = molecular target: T1, MRP1; assay: Rh123 dye efflux assay, HEK293-MRP1 cells; assay type: cell-based; settings: 22 µmol/L of drug, DMSO control 39.6%
Method: Rhodamine123 (Rh123) drug efflux was carried out using a Multidrug-Resistance Direct Dye Efflux Activity Kit (Millipore, Darmstadt, Germany), with some modifications. […] Reading was carried out with a Beckman Coulter FC500 flow cytometer.

| SMILES | resistance ratio of KB-C-2 vs KB-C-1 cells (KB-C-2 [2]) [folds] | Resistance (fold) (KB-C-2 [2]) | IC50 (KB-C-1) [nM] | Resistance (fold) (H69AR) | IC50 (H69AR) [nM] | IC50 (SW-1271) [nM] | IC50 (KB-C-2 [3]) [nM] | IC50 (MDA-MB-231) [nM] | further results |
| --- | --- | --- | --- | --- | --- | --- | --- | --- | --- |
| CC(=O)O[C@H]1C(=O)[C@@]2(C)[C@H]([C@H](OC(=O)c3ccccc3)[C@]3(O)C[C@H](OC(=O)[C@H](O)[C@@H](NC(=O)c4ccccc4)c4ccccc4)C(C)=C1C3(C)C)[C@]1(OC(C)=O)CO[C@@H]1C[C@@H]2O [paclitaxel, reference compound] | 11.48 | 11.48 | 2.01 ± 0.17 | 2.44 | 11 ± 2.6 | 4.51 ± 0.71 | 23.08 ± 0.21 |  | mice showing presence of hyaline in kidney [1]: one in four mice; resistance of MDA-MB-231TaxR (MDA-MB-231TaxR): 114 times; tumor volume Day 0 ([4]; Tax 10 mg/kg i.v. once/week, CTR 30 mg/kg i.p. every 3-4 days, combinations Tax 5 + CTR 15 mg/kg once/week): 91.84 mm3; tumor volume Day 6 ([4]; Tax 10 mg/kg i.v. once/week, CTR 30 mg/kg i.p. every 3-4 days, combinations Tax 5 + CTR 15 mg/kg once/week, sham 105.03): 90.11 mm3; tumor volume Day 14 ([4]; same doses, sham 136.66): 94.66 mm3; tumor volume Day 17 ([4]; same doses, sham 162.62): 92.33 mm3; tumor volume Day 20 ([4]; same doses, sham 192.69): 81.66 mm3; tumor volume Day 24 ([4]; same doses, sham 268.08): 95.61 mm3; tumor volume Day 27 ([4]; same doses, sham 426.87): 139.41 mm3; tumor volume Day 30 ([4]; same doses, sham 557.66): 170.36 mm3 |
| CC1(C)CCC(CN2CCN(c3ccc(C(=O)NS(=O)(=O)c4ccc(NCC5CCOCC5)c([N+](=O)[O-])c4)c(Oc4cnc5[nH]ccc5c4)c3)CC2)=C(c2ccc(Cl)cc2)C1 [ABT-199] |  |  |  |  |  |  |  | 11600 ± 1130 |  |
| COc1cc2c(c(OC)c1OC)-c1ccc(OC)c(=O)cc1[C@@H](NC(C)=O)CC2 [colchicine] |  |  |  |  |  |  |  |  | calcein-AM retained in the cells (MRP1 [5]): 59%; resistance of MRP1-overexpressing HEK293 cells (HEK293-MRP1): approximately 3.5 fold; Rh123 retention (MRP1 [6]): 77.6% |
| CC[C@]1(O)C[C@@H]2CN(CCc3c([nH]c4ccccc34)[C@@](C(=O)OC)(c3cc4c(cc3OC)N(C)[C@H]3[C@@](O)(C(=O)OC)[C@H](OC(C)=O)[C@]5(CC)C=CCN6CC[C@]43[C@@H]65)C2)C1 [vinblastine] | 15.20 | 15.20 | 0.61 ± 0.09 | 5.82 | 10.2 ± 1.97 | 1.75 ± 0.21 | 9.27 ± 3.22 |  |  |
| CN(C)CC[C@H](CSc1ccccc1)Nc1ccc(S(=O)(=O)NC(=O)c2ccc(N3CCN(Cc4ccccc4-c4ccc(Cl)cc4)CC3)cc2)cc1[N+](=O)[O-] [ABT-737] |  |  |  |  |  |  |  | 28500 ± 3990 |  |
